Results reported in US20060052459A1, “Antifungal medicaments comprising arylamidine derivatives” (priority 2002, published 2006).
Read-outs that look alike come from different tables or passages of the source.

How the values were obtained:
[1] = tested on: Aspergillus fumigatus strain IP 864.64; test: In vitro antifungal growth inhibition on microtitre plates (optical density 590 nm), compounds alone or as mixtures (Wadley method); type: cell-based; settings: for inhibition at 0.026 µg/mL / inhibition at 0.098 µg/mL / inhibition at 0.39 µg/mL / inhibition at 1.562 µg/mL / inhibition at 6.25 µg/mL / inhibition at 25 µg/mL / inhibition at 100 µg/mL / EC50: Aspergillus fumigatus; for inhibition at 0.026 µg/mL: dose 0.026 μg/ml; for inhibition at 0.098 µg/mL: dose 0.098 μg/ml; for inhibition at 0.39 µg/mL: dose 0.39 μg/ml; for inhibition at 1.562 µg/mL: dose 1.562 μg/ml; for inhibition at 6.25 µg/mL: dose 6.25 μg/ml; for inhibition at 25 µg/mL: dose 25 μg/ml; for inhibition at 100 µg/mL: dose 100 μg/ml
Experimental: (§1) The following fungi were used for this study: Candida albicans strains IP 48.72 (ATCC 10231) and Aspergillus fumigatus strain IP 864.64 obtained from the Collection Nationale de Cultures de Microorganismes (CNCM) of the Institut Pasteur. The strains are cultured on Yeast Extract-Peptone-Dextrose (YEPD) agar medium comprising 0.5% yeast extract, 0.5% bactopeptone, 2% glucose and 2% agar at 30° C. and in the dark.
(§2) All these compounds were prepared in a DMSO solution at a final concentration of 100 mg/ml. The stock solutions are stored at −20° C. up to the time of use.
(§3) The trials are carried out in RPMI 1640 medium with no sodium bicarbonate, but with L-glutamine buffered with 0.165 mol per litre of 3-[N-morpholino]propanesulphonic acid (MOPS), enriched (<>) or otherwise (<>) with 2% glucose. The pH of this medium is adjusted to 7.0. The medium is sterilized by filtration (0.22 μm) and stored at 4° C. up to the time of use.
(§4) All the antifungal tests are carried out on microtitre plates. The initial suspensions of spores are prepared in a sterile solution containing 0.85% NaCl, supplemented with Tween 80 at 0.01%. These initial suspensions are then diluted in the culture medium (RPMI 1640 enriched or otherwise with 2% glucose) to a final concentration of 10^4 spores per ml. The measurements of viability of each inoculum are verified by subcultures of a volume of 300 μl on YEPD agar medium.
(§5) The antifungal compounds are tested in a range of concentrations ranging from 0.026 to 100 μg of active ingredient/ml. These antifungal compounds are then diluted in RPMI 1640 medium enriched or otherwise with 2% glucose. A final DMSO concentration of 0.2% is used throughout the measurements. Each trial is carried out on a series of dilutions of antifungal compounds, in duplicate. The antifungal dilutions (0.1 ml) and the fungal inoculum (0.1 ml) are added to each of the wells of the microtitre plate. The plates are then read with a spectrophotometer (ELX 800UV Bio-Tek Instruments, Inc) at a wavelength of 590 nm. The plates are read immediately after (t=0) and after 48 hours' incubation at 30° C. and in the dark. The optical density values obtained are correlated with fungal growth between the times t=0 and t=48 hours. The optical density values are used to calculate the percentage inhibition of growth for each concentration of antifungals by comparison with the control. The values are then used to plot a dose-response curve and the EC50 value is determined for each fungus and each compound with the aid of the Grafit 5.0® software (Erithacus software Ltd).
(§6) The method which was used to measure the type of interaction existing between the antifungal compounds in the form of mixtures is the Wadley method.
(§7) In the Wadley approach, the dose-response curve for each of the compounds A and B, and for the mixture AB, is constructed. The EC50 is calculated for each compound taken individually and for the mixture. If a and b are the absolute quantities of the compounds A and B in the mixture (a=1, b=1, a+b=2 under our conditions), the expected effective concentration (EC50exp) may be calculated in the following manner: EC50exp=(a+b)/[a/EC50A)+b/(EC50B)
(§8) The Wadley approach may be used to estimate the type of interaction existing between the fungal compounds, regardless of their concentration. Its reliability is not dependent on the percentage inhibition. The type of interaction between two compounds is given by the level of interaction (LI) which corresponds to the ratio between the expected effective concentration (EC50exp) and that observed (EC50obs) of the mixture. The nature of the interaction obtained by the Wadley formula is presented in Table 1 (see U. Gisi, Synergistic interaction in fungicide mixtures, 1996. Phytopathology 86, 1273-1279) below.
(§9) The experimental conditions are the same as previously described.

[2] = tested on: Candida albicans strains IP 48.72 (ATCC 10231); test: as above; type: cell-based; settings: for inhibition at 0.026 µg/mL / inhibition at 0.098 µg/mL / inhibition at 0.39 µg/mL / inhibition at 1.562 µg/mL / inhibition at 6.25 µg/mL / inhibition at 25 µg/mL / inhibition at 100 µg/mL / EC50: Candida albicans; for inhibition at 0.026 µg/mL: dose 0.026 μg/ml; for inhibition at 0.098 µg/mL: dose 0.098 μg/ml; for inhibition at 0.39 µg/mL: dose 0.39 μg/ml; for inhibition at 1.562 µg/mL: dose 1.562 μg/ml; for inhibition at 6.25 µg/mL: dose 6.25 μg/ml; for inhibition at 25 µg/mL: dose 25 μg/ml; for inhibition at 100 µg/mL: dose 100 μg/ml
Experimental: as §1, §2, §3, §4, §5, §6, §7, §8, §9

[3] = IP864.64, 48 h, minimal RPMI 1640 medium (MM), 48 hours at 30° C.
[4] = IP864.64, 48 h, rich RPMI 1640 medium (RM), 48 hours at 30° C.
[5] = IP864.64, 48 h, second study, strain IP 864.64, RPMI 1640 medium enriched with 2% glucose, 48 hours at 30° C., read-out: EC50
[6] = ATCC10231, 48 h, minimal RPMI 1640 medium (MM), 48 hours at 30° C.
[7] = ATCC10231, 48 h, rich RPMI 1640 medium (RM), 48 hours at 30° C.
[8] = ATCC10231, 48 h, minimal RPMI 1640 medium (MM), 48 hours at 30° C., used alone, read-out: EC50
[9] = ATCC10231, 48 h, rich RPMI 1640 medium (RM), 48 hours at 30° C., used alone, read-out: EC50
[10] = ATCC10231, 48 h, second study, strain IP 48.72, RPMI 1640 medium enriched with 2% glucose, 48 hours at 30° C., read-out: EC50

SMILES | inhibition at 0.026 µg/mL [1, 3] [%] | inhibition at 0.026 µg/mL [1, 4] [%] | inhibition at 0.098 µg/mL [1, 3] [%] | inhibition at 0.098 µg/mL [1, 4] [%] | inhibition at 0.39 µg/mL [1, 3] [%] | inhibition at 0.39 µg/mL [1, 4] [%] | inhibition at 1.562 µg/mL [1, 3] [%] | inhibition at 1.562 µg/mL [1, 4] [%] | inhibition at 6.25 µg/mL [1, 3] [%] | inhibition at 6.25 µg/mL [1, 4] [%] | inhibition at 25 µg/mL [1, 3] [%] | inhibition at 25 µg/mL [1, 4] [%] | inhibition at 100 µg/mL [1, 3] [%] | inhibition at 100 µg/mL [1, 4] [%] | EC50 [1, 5] [µg/mL] | inhibition at 0.026 µg/mL [2, 6] [%] | inhibition at 0.026 µg/mL [2, 7] [%] | inhibition at 0.098 µg/mL [2, 6] [%] | inhibition at 0.098 µg/mL [2, 7] [%] | inhibition at 0.39 µg/mL [2, 6] [%] | also measured
CCN(C)C=Nc1cc(C)c(Oc2ccc(Cl)c(C(F)(F)F)c2)cc1C [Compound I.1, N-ethyl-N-methyl-N′-[4-(4-chloro-3-trifluoromethylphenoxy)-2,5-dimethylphenyl]imidoformamide] | 1 | 2.24 | 57.9 | 23.1 | 80.1 | 51.1 | 94.6 | 97.4 | 97.1 | 98.1 | 98.4 | 98.1 | 98.1 | 97.4 | 0.179 | 4.6 | 12.6 | 7 | 27.3 | 46.1 | EC50 ([1]; IP864.64, 48 h, minimal RPMI 1640 medium (MM), 48 hours at 30° C., used alone, read-out: EC50): 0.1 µg/mL; EC50 ([1]; IP864.64, 48 h, rich RPMI 1640 medium (RM), 48 hours at 30° C., used alone, read-out: EC50): 0.31 µg/mL; EC50 ([1]; IP864.64, on minimal (MM) or rich (RM) RPMI 1640 medium, summary in conclusions, read-out: EC50 values): 0.1 to 0.5 µg/mL; activity compared with itraconazole (compound II.2) ([1]; MM or RM medium): equivalent; EC50 compared with that of compound II.2 ([1]; second study, IP 864.64, enriched medium): similar; inhibition at 0.39 µg/mL [2, 7]: 43.6%; inhibition at 1.562 µg/mL [2, 6]: 96.2%; inhibition at 1.562 µg/mL [2, 7]: 96.9%; inhibition at 6.25 µg/mL [2, 6]: 98.7%; inhibition at 6.25 µg/mL [2, 7]: 99.5%; inhibition at 25 µg/mL [2, 6]: 99.2%; inhibition at 25 µg/mL [2, 7]: 99.5%; inhibition at 100 µg/mL [2, 6]: 98.1%; inhibition at 100 µg/mL [2, 7]: 98.8%; EC50 [2, 8]: 0.41 µg/mL; EC50 [2, 9]: 0.3 µg/mL; EC50 [2, 10]: 0.635 µg/mL; EC50 ([2]; ATCC10231, on minimal (MM) or rich (RM) RPMI 1640 medium, summary in conclusions, read-out: EC50 values): 0.1 to 0.5 µg/mL; activity compared with fluconazole (compound II.1) ([2]; MM or RM medium): at least equivalent
OC(Cn1cncn1)(Cn1cncn1)c1ccc(F)cc1F [Compound II.1, fluconazole] | 4.8 | 11.2 | 4.8 | 20.7 | 5.8 | 25.9 | 8.7 | 27.6 | 7.7 | 28.4 | 23.1 | 48.3 | 41.4 | 46.6 | 125 | 2.1 | 11.1 | 9.7 | 32.5 | 38.5 | EC50 ([1]; IP864.64, 48 h, minimal RPMI 1640 medium (MM), 48 hours at 30° C., extrapolated with Grafit 5.0, read-out: EC50 (extrapolated from the dose-response curves)): 575 µg/mL; EC50 ([1]; IP864.64, 48 h, rich RPMI 1640 medium (RM), 48 hours at 30° C., extrapolated with Grafit 5.0, read-out: EC50 (extrapolated from the dose-response curves)): 125 µg/mL; inhibition at 0.39 µg/mL [2, 7]: 72.6%; inhibition at 1.562 µg/mL [2, 6]: 64.7%; inhibition at 1.562 µg/mL [2, 7]: 86.8%; inhibition at 6.25 µg/mL [2, 6]: 77.7%; inhibition at 6.25 µg/mL [2, 7]: 94%; inhibition at 25 µg/mL [2, 6]: 81.9%; inhibition at 25 µg/mL [2, 7]: 95.3%; inhibition at 100 µg/mL [2, 6]: 91.6%; inhibition at 100 µg/mL [2, 7]: 36.1%; EC50 [2, 8]: 0.96 µg/mL; EC50 [2, 9]: 0.19 µg/mL; EC50 [2, 10]: 0.354 µg/mL
